Data published in patent EP2874610B1, “MULTILAYERED PHARMACEUTICAL FORMULATION” (Recordati Industria Chimica E Farmaceutica SPA, priority 2012, dated 2014).

Legend:
[1] = Dissolution test by immersion into simulated gastric fluid (USP apparatus II), then pH raised to 7.2; format: physicochemical
Protocol: The dissolution profile of the trilayered tablets prepared as described in examples 1, 2 and 3 was determined by immersion into simulated gastric fluid (USP apparatus II for dissolution test).
After immersion, the tablets (n = 6) placed themselves on the bottom of the vessel and the development of CO2 bubbles which remained entrapped into the hydroxypropylmethylcellulose gel formed in contact with the aqueous medium was observed from layer A. At the same time, layer B rapidly disintegrated in correspondence with the side surface of the layer exposed to the simulated gastric fluid.
The dissolution profile of the trilayered tablets prepared as described in examples 6, and 7 was determined by immersion into simulated gastric fluid (USP apparatus II for dissolution test).

[2] = clinical; settings: for AUC(0-inf): AUCinf; for time plasma levels were maintained at plateau: three layer tablet of example 4, Figure 6
Protocol: A three layer tablet of gabapentin 375 mg and flurbiprofen 37.5 mg, prepared as described in example 4, was administered to 24 healthy male and female subjects, 18-55 years old, in fasting conditions and after a high fat meal in single dose according to a randomized cross-over design. The treatment periods were separated by a wash out interval of at least 5 days.
Each dose was taken with 240 mL of water in fasting conditions from at least 10 hours or 30 minutes after a standardized meal, which was high-caloric (approximately 1000 Kcal) and high-fat (approximately 50 percent of total caloric content of the meal).
Gabapentin and flurbiprofen plasma levels were determined by a validated HPLC/MS/MS analytical method at the following times: pre-dose, 0.5, 1, 1.5, 2, 3, 4, 5, 6, 7, 8, 10, 12, 16, 24 and 32 h post-dose.

[3] = Dissolution rate under simulated fasting and fed conditions (SGF pH 1.2, FaSSGF pH 1.6, FeSSGFm pH 5.0); format: physicochemical; settings: tablets of example 2
Protocol: The dissolution rate of trilayered tablets prepared as described in example 2, was evaluated also under simulated fasting and fed conditions. The evaluation was carried out under the following conditions: simulated gastric fluid at pH1.2 (SGF), simulated gastric fluid at pH 1.6 (FaSSGF) for fasting conditions and simulated gastric fluid at pH 5.0 (FeSSGFm) for fed conditions.

[4] = both, human, in vivo, Fed conditions (high fat meal), three layer tablet of example 4, single dose, arithmetic mean ± s.d., n=24
[5] = three layer tablet of example 4, single dose

CC(C(=O)O)c1ccc(-c2ccccc2)c(F)c1 (stereo not shown) [flurbiprofen]
release of flurbiprofen contained in layer C in simulated gastric fluid ([1]; tablets of example 1, before raising the pH): not released in the first hour | release of flurbiprofen contained in layer C after having raised the pH to 7.2 ([1]; tablets of example 1, in 5 hours, linear release): 100% | release of flurbiprofen contained in layer C after having raised the pH to 7.2 ([1]; tablets of example 2, in 6 hours, linear release): 90% | release of flurbiprofen contained in layer C in simulated gastric fluid ([1]; tablets of example 2, pH 1.2): not released at pH 1.2 | release of flurbiprofen contained in layer C after having raised the pH to 7.2 ([1]; tablets of example 3, in 6 hours, linear release): 90% | release of flurbiprofen contained in layer C in simulated gastric fluid ([1]; tablets of example 3, pH 1.2): not released at pH 1.2 | release of flurbiprofen contained in layer C in simulated gastric fluid ([1]; tablets of example 6, before raising the pH): not released in the first hour | release of flurbiprofen contained in layer C after having raised the pH to 7.2 ([1]; tablets of example 6, in 5 hours): 100% | release of flurbiprofen contained in layer C after having raised the pH to 7.2 ([1]; tablets of example 7, in 7 hours, linear release): 90% | release of flurbiprofen contained in layer C in simulated gastric fluid ([1]; tablets of example 7, pH 1.2): not released at pH 1.2 | Ratio of geometric means, AUCinf, Test / Reference (Fed / fasting) ([2]; both, human, in vivo): 98% | Ratio of geometric means, Cmax, Test / Reference (Fed / fasting) ([2]; both, human, in vivo): 157% | time after intake up to which release was very low ([2]; both, human, in vivo): up to 2 hours | time post dose at which plasma levels reached a plateau ([2]; both, human, in vivo): around 4 hour | AUC(0-inf) ([2]; both, human, in vivo): 35.7 ± 13.2 µg·h/mL | Tmax ([2]; both, human, in vivo): 12 h

NCC1(CC(=O)O)CCCCC1 [gabapentin]
release time of gabapentin contained in layer B ([1]; tablets of example 1): ≤ 5 min | release time of remaining dose of gabapentin contained in layer A ([1]; tablets of example 1, slow prolonged release): about 8 hours | release time of gabapentin contained in layer B ([1]; tablets of example 2): ≤ 15 min | release time of remaining dose of gabapentin contained in layer A ([1]; tablets of example 2, slow prolonged release): about 9 hours | release time of gabapentin contained in layer B ([1]; tablets of example 3): ≤ 15 min | release time of remaining dose of gabapentin contained in layer A ([1]; tablets of example 3, slow prolonged release): about 9 hours | release time of gabapentin contained in layer B ([1]; tablets of example 6): ≤ 15 min | release of remaining dose of gabapentin contained in layer A ([1]; tablets of example 6, in about 9 hours, slow prolonged release): 90% | release time of gabapentin contained in layer B ([1]; tablets of example 7): ≤ 15 min | release time of remaining dose of gabapentin contained in layer A ([1]; tablets of example 7, slow prolonged release): about 9 hours | AUC(0-inf) ([2]; both, human, in vivo, Fasting conditions, three layer tablet of example 4, single dose, arithmetic mean ± s.d., n=24): 24.1 ± 8.15 µg·h/mL | AUC(0-inf) [2, 4]: 39.2 ± 9.07 µg·h/mL | Cmax ([2]; both, human, in vivo, Fasting conditions, three layer tablet of example 4 (gabapentin 375 mg, flurbiprofen 37.5 mg), single dose, arithmetic mean ± s.d., n=24): 2.34 ± 0.748 µg/mL | Cmax [2, 4]: 3.08 ± 0.727 µg/mL | Tmax ([2]; both, human, in vivo, Fasting conditions, three layer tablet of example 4, single dose, median (min - max), n=24): 4 h | Tmax ([2]; both, human, in vivo, Fed conditions (high fat meal), three layer tablet of example 4, single dose, median (min - max), n=24): 5 h | time plasma levels were maintained at plateau ([2]; fasting conditions): about 4 hours | time plasma levels were maintained at plateau ([2]; fed conditions): 8 h | Ratio of geometric means, AUCinf, Test / Reference (Fed / fasting) [2, 5]: 167% | Ratio of geometric means, Cmax, Test / Reference (Fed / fasting) [2, 5]: 136% | f2 factor, similarity index between SGF and FaSSGF release profiles ([3]; pH 1.2 vs pH 1.6): 83 | f2 factor, similarity index between SGF and FeSSGFm release profiles ([3]; pH 1.2 vs pH 5.0): 65.8 | f2 factor, similarity index between FaSSFG and FeSSGFm release profiles ([3]; pH 1.6 vs pH 5.0): 55.7 | comparison of dissolution profiles in SGF, FaSSGF and FeSSGFm ([3]; result in words): did not show significant differences
